From PMC6917776, “Discovery of a chemical probe for PRDM9” (Nature Communications, 2019)
Where two headings read alike, the source gives them in different places.

Legend:
Experiment in all cases: Methyltransferase selectivity assay (filter-based, nucleosome substrate)
Type in all cases: biochemical
[1] = target: T1, NSD1 (Homo sapiens, UniProt Q96L73)
T1 construct: purchased Structural Genomics Consortium (SGC Toronto) in-house methyltransferase panel
Method: (§1) Selectivity against methyltransferases were determined as described previously. Details of the assays are described in the supplementary methods.
(§2) Methyltransferase selectivity assay1
(§3) The effect of chemical probes and negative controls on the methyltransferase activities of protein, DNA and RNA methyltransferases was tested by radiometric assays using 3H-SAM. […]
(§4) The CPM in the absence of compound or enzyme was defined as 100% activity and background (0%), respectively, for each dataset. […]
(§5) For proteins which were tested with nucleosome as substrate such as DOT1L, NSD1, NSD2, NSD3, and ASH1L, or unbiotinylated Poly(2′-deoxyinosinic-2′-deoxycytidylic acid) (Cat# 81349-500UG, Sigma Aldrich) such as DNMT3A/3L, and DNMT3B/3L, a filter-based assay was used. In this assay, a trichloroacetic acid (TCA) protein precipitation protocol was employed. A 10 µL reaction mixture was incubated at 23°C for 1 h, followed by addition of 50 µL of 10% TCA. The mixture was transferred to filter plates (Millipore, Billerica, MA, USA) that were centrifuged at 2000 rpm (Allegra X-15R; Beckman Coulter, Brea, CA, USA) for 2 min. Samples were washed twice with 10% TCA and once with ethanol (180 µL), and centrifuged. After drying, 100 µL MicroScint-O (Perkin Elmer) was added to each well and the plates were centrifuged to remove the liquid. A 70 µL volume of MicroScint-O was added and the CPM was measured with a TopCount plate reader.

[2] = target: T2, DOT1L (Homo sapiens, UniProt Q8TEK3)
T2 construct: purchased Structural Genomics Consortium (SGC Toronto) in-house methyltransferase panel
Method: as §1, §2, §3, §4, §5

[3] = target: T3, NSD2 (Homo sapiens, UniProt O96028)
T3 construct: purchased Structural Genomics Consortium (SGC Toronto) in-house methyltransferase panel
T3 sequence (O96028 1-1365): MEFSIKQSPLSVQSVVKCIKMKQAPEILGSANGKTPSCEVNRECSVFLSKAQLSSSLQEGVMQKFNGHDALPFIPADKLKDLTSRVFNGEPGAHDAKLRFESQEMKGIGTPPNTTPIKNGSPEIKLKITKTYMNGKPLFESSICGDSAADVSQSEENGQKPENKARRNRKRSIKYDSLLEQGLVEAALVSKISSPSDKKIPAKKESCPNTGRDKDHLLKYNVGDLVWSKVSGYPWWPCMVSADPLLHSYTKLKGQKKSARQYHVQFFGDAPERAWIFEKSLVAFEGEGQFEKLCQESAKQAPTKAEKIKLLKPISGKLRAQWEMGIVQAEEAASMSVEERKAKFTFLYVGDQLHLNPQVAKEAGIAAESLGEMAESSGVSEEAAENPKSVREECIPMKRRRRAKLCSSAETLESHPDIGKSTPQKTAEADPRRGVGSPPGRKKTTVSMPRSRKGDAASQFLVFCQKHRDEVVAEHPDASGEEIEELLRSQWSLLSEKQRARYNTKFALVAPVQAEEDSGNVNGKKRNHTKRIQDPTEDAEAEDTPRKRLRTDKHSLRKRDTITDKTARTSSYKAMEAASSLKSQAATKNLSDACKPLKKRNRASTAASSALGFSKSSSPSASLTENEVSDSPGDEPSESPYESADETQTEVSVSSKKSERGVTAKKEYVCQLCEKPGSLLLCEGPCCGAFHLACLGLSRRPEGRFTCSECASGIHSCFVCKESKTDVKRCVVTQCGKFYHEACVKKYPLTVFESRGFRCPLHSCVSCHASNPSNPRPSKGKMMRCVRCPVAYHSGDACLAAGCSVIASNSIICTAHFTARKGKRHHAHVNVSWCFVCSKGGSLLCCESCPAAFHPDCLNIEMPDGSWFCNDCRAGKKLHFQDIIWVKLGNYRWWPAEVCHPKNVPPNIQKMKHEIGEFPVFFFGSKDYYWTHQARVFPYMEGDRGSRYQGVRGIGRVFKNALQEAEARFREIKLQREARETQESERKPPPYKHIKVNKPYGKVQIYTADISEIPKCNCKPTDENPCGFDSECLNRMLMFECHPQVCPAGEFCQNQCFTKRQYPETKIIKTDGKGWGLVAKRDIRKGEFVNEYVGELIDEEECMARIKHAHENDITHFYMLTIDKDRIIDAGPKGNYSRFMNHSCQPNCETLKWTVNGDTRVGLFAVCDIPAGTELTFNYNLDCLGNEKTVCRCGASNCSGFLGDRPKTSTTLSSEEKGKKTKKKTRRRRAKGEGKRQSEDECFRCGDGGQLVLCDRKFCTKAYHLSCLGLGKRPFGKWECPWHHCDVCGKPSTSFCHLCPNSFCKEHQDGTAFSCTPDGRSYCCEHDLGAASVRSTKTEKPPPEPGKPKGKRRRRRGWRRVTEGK
Method: as §1, §2, §3, §4, §5

[4] = target: T4, ASH1L (Homo sapiens, UniProt Q9NR48)
T4 construct: purchased Structural Genomics Consortium (SGC Toronto) in-house methyltransferase panel
Method: as §1, §2, §3, §4, §5

[5] = 1µM compound, Exp1, Exp2, read-out: Activity %
[6] = 10µM compound, Exp1, Exp2, 10 µM
[7] = 10µM compound, Exp1, Exp2, read-out: Activity %

T1 sequence (Q96L73 whole entry): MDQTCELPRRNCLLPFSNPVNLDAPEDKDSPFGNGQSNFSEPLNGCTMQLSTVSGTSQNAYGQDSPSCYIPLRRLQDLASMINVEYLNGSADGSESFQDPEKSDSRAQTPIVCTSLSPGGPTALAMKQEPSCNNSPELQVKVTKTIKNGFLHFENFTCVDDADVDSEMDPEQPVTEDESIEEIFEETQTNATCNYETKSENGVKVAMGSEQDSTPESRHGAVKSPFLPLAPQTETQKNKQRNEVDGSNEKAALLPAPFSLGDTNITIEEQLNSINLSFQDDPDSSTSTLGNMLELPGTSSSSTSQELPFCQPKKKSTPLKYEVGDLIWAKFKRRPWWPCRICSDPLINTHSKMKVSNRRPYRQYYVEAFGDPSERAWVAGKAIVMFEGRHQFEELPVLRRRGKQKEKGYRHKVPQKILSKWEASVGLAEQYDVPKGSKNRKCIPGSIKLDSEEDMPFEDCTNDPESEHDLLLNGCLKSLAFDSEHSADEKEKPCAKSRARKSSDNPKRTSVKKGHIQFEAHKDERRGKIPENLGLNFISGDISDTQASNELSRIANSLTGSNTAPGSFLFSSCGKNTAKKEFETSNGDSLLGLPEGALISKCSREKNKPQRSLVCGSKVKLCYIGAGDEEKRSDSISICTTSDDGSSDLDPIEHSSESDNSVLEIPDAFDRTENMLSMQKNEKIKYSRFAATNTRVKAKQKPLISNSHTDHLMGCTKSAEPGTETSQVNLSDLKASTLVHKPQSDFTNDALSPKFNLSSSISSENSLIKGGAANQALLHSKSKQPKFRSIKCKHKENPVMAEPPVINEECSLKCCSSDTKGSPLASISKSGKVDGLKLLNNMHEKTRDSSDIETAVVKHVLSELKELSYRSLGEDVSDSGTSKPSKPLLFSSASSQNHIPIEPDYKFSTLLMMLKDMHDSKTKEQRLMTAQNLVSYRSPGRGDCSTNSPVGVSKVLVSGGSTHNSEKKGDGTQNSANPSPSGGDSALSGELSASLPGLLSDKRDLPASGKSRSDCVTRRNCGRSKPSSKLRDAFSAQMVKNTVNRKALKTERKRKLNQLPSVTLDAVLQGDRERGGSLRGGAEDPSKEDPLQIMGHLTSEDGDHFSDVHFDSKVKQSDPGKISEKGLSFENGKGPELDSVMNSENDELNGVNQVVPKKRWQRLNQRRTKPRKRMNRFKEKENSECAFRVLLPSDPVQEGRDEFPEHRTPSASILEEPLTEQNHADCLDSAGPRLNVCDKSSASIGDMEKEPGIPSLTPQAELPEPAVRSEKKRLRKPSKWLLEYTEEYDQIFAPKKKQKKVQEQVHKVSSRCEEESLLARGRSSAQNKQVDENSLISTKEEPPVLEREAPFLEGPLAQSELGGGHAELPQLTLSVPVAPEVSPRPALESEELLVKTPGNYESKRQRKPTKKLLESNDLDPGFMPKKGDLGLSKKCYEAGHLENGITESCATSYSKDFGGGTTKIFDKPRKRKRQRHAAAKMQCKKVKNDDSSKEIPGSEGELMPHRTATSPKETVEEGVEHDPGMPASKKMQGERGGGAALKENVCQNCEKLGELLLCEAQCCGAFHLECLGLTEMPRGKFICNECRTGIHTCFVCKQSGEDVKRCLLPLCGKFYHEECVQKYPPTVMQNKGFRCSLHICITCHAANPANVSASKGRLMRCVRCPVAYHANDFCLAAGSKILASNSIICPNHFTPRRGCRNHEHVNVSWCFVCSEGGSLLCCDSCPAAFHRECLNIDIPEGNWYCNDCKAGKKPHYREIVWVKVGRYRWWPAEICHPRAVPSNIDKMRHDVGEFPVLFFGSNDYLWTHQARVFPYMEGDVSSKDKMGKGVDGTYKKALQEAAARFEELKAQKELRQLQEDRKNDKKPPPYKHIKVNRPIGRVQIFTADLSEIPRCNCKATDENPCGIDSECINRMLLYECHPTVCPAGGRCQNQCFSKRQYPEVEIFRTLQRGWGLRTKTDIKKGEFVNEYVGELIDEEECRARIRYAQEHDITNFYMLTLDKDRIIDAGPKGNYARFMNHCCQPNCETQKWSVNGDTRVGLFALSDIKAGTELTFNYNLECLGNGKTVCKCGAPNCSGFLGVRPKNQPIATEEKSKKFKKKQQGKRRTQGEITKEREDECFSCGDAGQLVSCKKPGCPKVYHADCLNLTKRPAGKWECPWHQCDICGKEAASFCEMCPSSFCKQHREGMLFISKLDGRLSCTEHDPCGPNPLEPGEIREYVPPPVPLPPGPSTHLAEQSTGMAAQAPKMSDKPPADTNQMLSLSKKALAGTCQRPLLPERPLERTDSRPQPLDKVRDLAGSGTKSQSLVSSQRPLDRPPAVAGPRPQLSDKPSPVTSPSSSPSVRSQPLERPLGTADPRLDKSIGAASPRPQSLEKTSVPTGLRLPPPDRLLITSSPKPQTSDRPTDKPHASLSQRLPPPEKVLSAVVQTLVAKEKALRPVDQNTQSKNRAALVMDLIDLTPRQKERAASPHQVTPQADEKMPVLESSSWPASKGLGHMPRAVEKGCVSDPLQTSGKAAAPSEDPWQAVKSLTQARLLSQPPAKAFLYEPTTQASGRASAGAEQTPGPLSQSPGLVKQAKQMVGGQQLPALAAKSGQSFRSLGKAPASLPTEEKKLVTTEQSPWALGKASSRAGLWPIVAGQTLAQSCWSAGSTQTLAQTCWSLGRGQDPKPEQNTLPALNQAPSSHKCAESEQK
T2 sequence (Q8TEK3 whole entry): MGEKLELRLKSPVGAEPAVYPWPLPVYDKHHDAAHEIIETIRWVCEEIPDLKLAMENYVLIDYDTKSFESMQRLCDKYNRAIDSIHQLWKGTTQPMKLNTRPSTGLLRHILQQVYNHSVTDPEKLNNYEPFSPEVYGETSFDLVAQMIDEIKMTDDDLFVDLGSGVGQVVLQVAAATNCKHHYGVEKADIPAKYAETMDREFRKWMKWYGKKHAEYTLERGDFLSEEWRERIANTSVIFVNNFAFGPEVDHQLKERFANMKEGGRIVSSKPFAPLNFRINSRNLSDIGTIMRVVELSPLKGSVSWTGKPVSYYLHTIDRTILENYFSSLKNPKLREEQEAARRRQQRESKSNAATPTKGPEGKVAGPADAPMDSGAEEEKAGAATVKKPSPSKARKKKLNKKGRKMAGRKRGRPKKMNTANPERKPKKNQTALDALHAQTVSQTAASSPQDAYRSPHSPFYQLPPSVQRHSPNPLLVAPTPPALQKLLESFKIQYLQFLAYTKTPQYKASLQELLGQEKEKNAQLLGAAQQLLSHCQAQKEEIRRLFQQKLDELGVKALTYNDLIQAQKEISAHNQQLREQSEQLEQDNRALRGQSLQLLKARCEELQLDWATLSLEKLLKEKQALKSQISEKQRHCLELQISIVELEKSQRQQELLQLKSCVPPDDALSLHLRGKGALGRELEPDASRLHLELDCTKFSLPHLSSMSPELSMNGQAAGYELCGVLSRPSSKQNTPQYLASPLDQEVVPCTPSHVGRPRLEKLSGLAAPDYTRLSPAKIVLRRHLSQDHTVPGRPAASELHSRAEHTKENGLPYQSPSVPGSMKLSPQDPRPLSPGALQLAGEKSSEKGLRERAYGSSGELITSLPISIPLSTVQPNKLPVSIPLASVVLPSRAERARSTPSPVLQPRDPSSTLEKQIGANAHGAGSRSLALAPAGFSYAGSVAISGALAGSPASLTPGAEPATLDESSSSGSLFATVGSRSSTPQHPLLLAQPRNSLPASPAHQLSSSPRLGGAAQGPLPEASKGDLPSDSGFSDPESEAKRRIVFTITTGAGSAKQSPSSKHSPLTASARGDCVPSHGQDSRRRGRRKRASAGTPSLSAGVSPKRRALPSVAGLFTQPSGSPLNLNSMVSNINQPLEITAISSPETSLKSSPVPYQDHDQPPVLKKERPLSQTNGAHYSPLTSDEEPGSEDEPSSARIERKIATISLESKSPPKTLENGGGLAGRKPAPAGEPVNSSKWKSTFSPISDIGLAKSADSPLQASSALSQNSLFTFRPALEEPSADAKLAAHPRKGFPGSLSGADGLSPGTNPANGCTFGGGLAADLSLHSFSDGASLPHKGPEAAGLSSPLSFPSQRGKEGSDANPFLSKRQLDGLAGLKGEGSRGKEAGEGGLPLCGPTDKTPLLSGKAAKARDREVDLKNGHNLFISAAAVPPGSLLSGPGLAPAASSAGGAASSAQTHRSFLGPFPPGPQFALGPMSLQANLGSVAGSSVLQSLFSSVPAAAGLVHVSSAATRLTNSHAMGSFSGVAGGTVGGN

`COc1cc(OC)cc(-c2noc(N3CCN(C)C4(CCN(c5ccnc(C)c5)CC4)C3)n2)c1` [MRK-740] gave an Activity % ([1]; 1µM compound, Exp1, Exp2, 1 µM) of 97%, an activity at 1 µM [1, 5] of 96% and an Activity % [1, 6] of 98%. For the same compound, the activity at 10 µM [1, 7] was 106%, the Activity % ([2]; 1µM compound, Exp1, Exp2, 1 µM) was 100% and the activity at 1 µM [2, 5] was 98%. The activity at 10 µM [2, 7] was 97%, the Activity % ([3]; 1µM compound, Exp1, Exp2, 1 µM) was 97% and the activity at 1 µM [3, 5] was 91%. For the same compound, the Activity % [3, 6] was 95%, the activity at 10 µM [3, 7] was 98% and the Activity % ([4]; 1µM compound, Exp1, Exp2, 1 µM) was 102%. It also gave an activity at 1 µM [4, 5] of 113% and an activity at 10 µM [4, 7] of 93%.
For `COc1cc(OC)cc(-c2noc(N3CCN(C)C4(CCN(c5ccccc5)CC4)C3)n2)c1` [MRK-740 -NC], the activity at 1 µM ([1]; 1µM compound, Exp1, Exp2) was 103%, the activity at 10 µM ([1]; 10µM compound, Exp1, Exp2) was 100% and the Activity % [1, 6] was 99%. It also gave an activity at 1 µM ([2]; 1µM compound, Exp1, Exp2) of 104%, an Activity % ([2]; 1µM compound, Exp1, Exp2, 1 µM) of 102% and an activity at 10 µM ([2]; 10µM compound, Exp1, Exp2) of 100%. For the same compound, the Activity % [2, 6] was 99%, the activity at 1 µM ([3]; 1µM compound, Exp1, Exp2) was 98% and the Activity % ([3]; 1µM compound, Exp1, Exp2, 1 µM) was 100%. The activity at 10 µM ([3]; 10µM compound, Exp1, Exp2) was 98%, the Activity % [3, 6] was 88% and the activity at 1 µM ([4]; 1µM compound, Exp1, Exp2) was 100%. The activity at 10 µM ([4]; 10µM compound, Exp1, Exp2) was 99% and the Activity % [4, 6] was 98%.
